The results in this text go back to patent publication US10023570B2 (Array BioPharma, Inc., priority 2015, dated 2018).

Where two headings read alike, the source gives them in different places.

In assay [1] the target is Kif5b-RET fusion protein in HEK-293 cells (Homo sapiens, UniProt P07949). Kind of assay: cell-based.
Assay [2] addresses human KDR protein in HEK-293 cells (Homo sapiens (Human), UniProt P35968). Kind of assay: KDR Cell Assay (phospho-KDR in HEK-293 cells expressing inducible KDR). The settings on record: pKDR Cell HEK 10% FBS IC50, HEK-293 cells expressing inducible KDR, VEGF stimulated. The class given is cell-based. Summed up: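 HEK-293 cells with inducible human KDR were treated with compound for 1 h in DMEM (0.25% DMSO final), then lysed. Phospho-KDR was quantified by Meso Scale immunoassay, expressed as percent of control, and IC50 taken where a 4-parameter logistic fit crossed 50 POC.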

Assay [3] concerns the target N-terminal GST tagged recombinant human RET cytoplasmic domain (aa 658-end), wild type RET kinase (Homo sapiens (Human), UniProt P07949). Kind of assay: RET Enzyme Assay (HTRF KinEASE-TK), wild type RET. The class given is biochemical. In general terms: In TR-FRET formats the signal depends on donor and acceptor labels being close together.
Where [4] appears, read: HEK-293 cells expressing Kif5b-RET, phospho-RET(Tyr1062), read-out: KIF5B-RET pTYR1062 Cell IC50.
Where [5] appears, read: HEK-293 cells expressing Kif5b-RET, read-out: KIF5B-RET pTYR1062 Cell IC50.
Setting [6] is: read-out: KIF5B-RET pTYR1062 Cell IC50.

Sequence of Kif5b-RET fusion protein in HEK-293 cells (P07949 29-1114 limits assumed): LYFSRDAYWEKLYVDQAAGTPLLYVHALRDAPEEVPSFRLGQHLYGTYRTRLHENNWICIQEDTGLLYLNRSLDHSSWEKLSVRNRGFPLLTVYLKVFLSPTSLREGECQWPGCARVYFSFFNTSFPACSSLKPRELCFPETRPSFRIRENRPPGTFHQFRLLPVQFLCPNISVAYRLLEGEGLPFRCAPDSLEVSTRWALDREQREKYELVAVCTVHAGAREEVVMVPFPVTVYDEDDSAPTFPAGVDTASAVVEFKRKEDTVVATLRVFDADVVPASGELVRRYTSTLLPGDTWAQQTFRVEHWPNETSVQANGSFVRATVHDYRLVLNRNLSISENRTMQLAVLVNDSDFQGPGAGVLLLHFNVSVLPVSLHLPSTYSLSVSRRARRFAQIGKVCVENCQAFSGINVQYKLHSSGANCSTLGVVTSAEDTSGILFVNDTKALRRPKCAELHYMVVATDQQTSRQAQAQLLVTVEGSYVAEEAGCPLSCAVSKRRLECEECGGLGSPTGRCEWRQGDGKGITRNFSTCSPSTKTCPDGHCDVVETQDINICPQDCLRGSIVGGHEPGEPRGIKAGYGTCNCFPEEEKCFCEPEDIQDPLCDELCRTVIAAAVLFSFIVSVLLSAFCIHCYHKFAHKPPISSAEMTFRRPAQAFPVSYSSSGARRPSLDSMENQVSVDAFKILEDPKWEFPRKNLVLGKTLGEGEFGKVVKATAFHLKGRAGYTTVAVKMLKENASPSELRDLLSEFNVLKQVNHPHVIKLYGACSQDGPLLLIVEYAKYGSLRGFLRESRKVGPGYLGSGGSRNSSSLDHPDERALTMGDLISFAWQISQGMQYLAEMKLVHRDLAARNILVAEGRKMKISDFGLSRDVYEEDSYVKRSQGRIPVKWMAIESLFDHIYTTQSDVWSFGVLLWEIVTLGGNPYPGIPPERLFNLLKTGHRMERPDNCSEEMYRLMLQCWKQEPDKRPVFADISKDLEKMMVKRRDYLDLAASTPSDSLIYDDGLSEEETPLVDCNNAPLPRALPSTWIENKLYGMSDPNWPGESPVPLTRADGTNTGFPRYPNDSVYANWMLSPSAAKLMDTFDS
Sequence of human KDR protein in HEK-293 cells (P35968 20-1356): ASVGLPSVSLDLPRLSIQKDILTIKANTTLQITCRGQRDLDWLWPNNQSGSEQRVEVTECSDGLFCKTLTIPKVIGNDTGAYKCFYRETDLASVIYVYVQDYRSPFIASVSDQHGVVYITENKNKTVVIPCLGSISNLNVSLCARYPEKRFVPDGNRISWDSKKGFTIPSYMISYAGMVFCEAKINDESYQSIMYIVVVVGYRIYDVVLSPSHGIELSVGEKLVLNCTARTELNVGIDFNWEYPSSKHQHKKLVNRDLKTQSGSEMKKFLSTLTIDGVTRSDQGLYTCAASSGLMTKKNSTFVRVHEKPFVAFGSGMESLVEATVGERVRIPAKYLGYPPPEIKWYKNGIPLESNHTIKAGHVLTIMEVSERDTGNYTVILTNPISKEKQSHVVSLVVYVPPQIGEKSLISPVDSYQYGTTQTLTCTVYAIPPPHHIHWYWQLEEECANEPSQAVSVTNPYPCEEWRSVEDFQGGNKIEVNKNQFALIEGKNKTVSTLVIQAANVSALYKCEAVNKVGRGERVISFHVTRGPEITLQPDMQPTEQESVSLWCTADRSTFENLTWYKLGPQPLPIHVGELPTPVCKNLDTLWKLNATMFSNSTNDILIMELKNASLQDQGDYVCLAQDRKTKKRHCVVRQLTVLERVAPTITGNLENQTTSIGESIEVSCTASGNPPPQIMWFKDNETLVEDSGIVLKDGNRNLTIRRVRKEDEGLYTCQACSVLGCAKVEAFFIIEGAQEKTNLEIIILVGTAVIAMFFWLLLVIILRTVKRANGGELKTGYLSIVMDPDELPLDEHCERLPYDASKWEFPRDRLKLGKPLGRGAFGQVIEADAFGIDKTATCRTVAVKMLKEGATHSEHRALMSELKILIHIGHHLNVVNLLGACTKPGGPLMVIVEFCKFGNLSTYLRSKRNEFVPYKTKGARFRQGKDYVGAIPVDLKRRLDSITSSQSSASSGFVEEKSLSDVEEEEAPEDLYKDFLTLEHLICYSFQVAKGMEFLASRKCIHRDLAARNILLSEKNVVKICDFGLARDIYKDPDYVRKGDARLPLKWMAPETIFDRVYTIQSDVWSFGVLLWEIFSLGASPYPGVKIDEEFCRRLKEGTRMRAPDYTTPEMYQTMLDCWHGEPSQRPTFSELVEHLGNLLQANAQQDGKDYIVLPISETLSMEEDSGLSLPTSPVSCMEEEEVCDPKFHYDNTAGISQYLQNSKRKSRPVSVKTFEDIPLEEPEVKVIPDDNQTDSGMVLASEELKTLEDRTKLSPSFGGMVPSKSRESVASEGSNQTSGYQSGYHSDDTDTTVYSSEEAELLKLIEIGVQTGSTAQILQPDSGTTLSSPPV
Sequence of N-terminal GST tagged recombinant human RET cytoplasmic domain (aa 658-end), wild type RET kinase (P07949 658-1114): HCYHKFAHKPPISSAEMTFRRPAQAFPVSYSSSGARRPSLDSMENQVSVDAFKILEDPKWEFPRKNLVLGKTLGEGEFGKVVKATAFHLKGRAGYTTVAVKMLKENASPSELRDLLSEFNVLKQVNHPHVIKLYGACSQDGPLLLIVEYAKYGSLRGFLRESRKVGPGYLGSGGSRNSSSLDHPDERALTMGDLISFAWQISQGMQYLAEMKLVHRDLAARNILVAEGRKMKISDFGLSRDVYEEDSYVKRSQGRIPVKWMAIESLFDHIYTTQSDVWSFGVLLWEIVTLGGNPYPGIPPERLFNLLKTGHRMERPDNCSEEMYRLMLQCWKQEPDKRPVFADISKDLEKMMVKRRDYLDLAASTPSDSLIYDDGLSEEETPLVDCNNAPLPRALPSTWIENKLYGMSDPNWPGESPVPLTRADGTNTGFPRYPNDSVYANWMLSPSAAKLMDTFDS

The term IC50 denotes the point on the concentration scale where inhibition reaches its midpoint. On to `CCCC(=O)N1CCN(c2ccc(-c3cc(-c4cnn(C)c4)cn4ncc(C#N)c34)cn2)CC1` [Example 70, 4-(6-(4-butyrylpiperazin-1-yl)pyridin-3-yl)-6-(1-methyl-1H-pyrazol-4-yl)pyrazolo[1,5-a]pyridine-3-carbonitrile], for which the IC50 in assay [1] (setting [4]) worked out at 18.5 nM; in assay [2] (10% FBS), 510 nM; in assay [3] (wild type RET, 1 mM ATP) it was 8.4 nM.
With `CN(C)C(=O)CN1CCN(c2ccc(-c3cc(-c4cnn(C)c4)cn4ncc(C#N)c34)cn2)CC1` [Example 143, 2-(4-(5-(3-cyano-6-(1-methyl-1H-pyrazol-4-yl)pyrazolo[1,5-a]pyridin-4-yl)pyridin-2-yl)piperazin-1-yl)-N,N-dimethylacetamide 2,2,2-trifluoroacetate], the IC50 stood at 69.8 nM in assay [1] (setting [4]), 1800 nM in assay [2] (10% FBS) and 34.1 nM in assay [3].
As for `CC(C)Cn1cc(-c2cc(-c3ccc(N4CCN(Cc5ccccc5)CC4)nc3)c3c(C#N)cnn3c2)cn1` [Example 612, 4-(6-(4-benzylpiperazin-1-yl)pyridin-3-yl)-6-(1-isobutyl-1H-pyrazol-4-yl)pyrazolo[1,5-a]pyridine-3-carbonitrile], the IC50 was determined as 5.2 nM in assay [1] (setting [5]); 431 nM in assay [2]; 38.2 nM in assay [3] (wild type RET, 1 mM ATP).
For `COC(CN1CCN(c2ccc(-c3cc(-c4cnn(C)c4)cn4ncc(C#N)c34)cn2)CC1)C(C)C` (stereo not drawn) [Example 413, 4-(6-(4-(2-methoxy-3-methylbutyl)piperazin-1-yl)pyridin-3-yl)-6-(1-methyl-1H-pyrazol-4-yl)pyrazolo[1,5-a]pyridine-3-carbonitrile], the IC50 in assay [1] (setting [5]) was 29.1 nM; in assay [2] it was 549 nM; in assay [3] (wild type RET, 1 mM ATP), 15.6 nM.
Consider `Cc1nn(C(C)C)cc1-c1cc(-c2ccc(N3CCN(Cc4ccccc4)CC3)nc2)c2c(C#N)cnn2c1` [Example 614, 4-(6-(4-benzylpiperazin-1-yl)pyridin-3-yl)-6-(1-isopropyl-3-methyl-1H-pyrazol-4-yl)pyrazolo[1,5-a]pyridine-3-carbonitrile], for which the IC50 worked out at 17 nM in assay [1]; 2300 nM in assay [2]; 22.2 nM in assay [3] (wild type RET, 1 mM ATP).
Consider `COCCN(C)C(=O)N1CCN(c2ccc(-c3cc(-c4cnn(C)c4)cn4ncc(C#N)c34)cn2)CC1` [Example 130, 4-(5-(3-cyano-6-(1-methyl-1H-pyrazol-4-yl)pyrazolo[1,5-a]pyridin-4-yl)pyridin-2-yl)-N-(2-methoxyethyl)-N-methylpiperazine-1-carboxamide 2,2,2-trifluoroacetate], for which the IC50 in assay [1] (setting [6]) was 33 nM; in assay [2] (10% FBS), 2250 nM; in assay [3] (wild type RET, 1 mM ATP) it was 20.8 nM.
`CC(C)NC(=O)C1(C)CCN(c2ccc(-c3cc(-c4cnn(C)c4)cn4ncc(C#N)c34)cn2)CC1` [Example 251, 1-(5-(3-cyano-6-(1-methyl-1H-pyrazol-4-yl)pyrazolo[1,5-a]pyridin-4-yl)pyridin-2-yl)-N-isopropyl-4-methylpiperidine-4-carboxamide]: the IC50 in assay [1] (setting [4]) came out at 5.6 nM; in assay [2] (10% FBS), 495 nM; in assay [3] (wild type RET, 1 mM ATP) it was 7.8 nM.
On to `C[C@@H](O)C(=O)NC1CCN(c2ccc(-c3cc(-c4cnn(C)c4)cn4ncc(C#N)c34)cn2)CC1` [Example 181, (R)-N-(1-(5-(3-cyano-6-(1-methyl-1H-pyrazol-4-yl)pyrazolo[1,5-a]pyridin-4-yl)pyridin-2-yl)piperidin-4-yl)-2-hydroxypropanamide], for which the IC50 in assay [1] (setting [4]) came out at 109 nM; in assay [2] (10% FBS), 1200 nM; in assay [3] (wild type RET, 1 mM ATP), 10.5 nM.
On to `COc1ncccc1CN1CCN(c2ccc(-c3cc(-c4cnn(C)c4)cn4ncc(C#N)c34)cn2)CC1` [Example 452, 4-(6-(4-((2-methoxypyridin-3-yl)methyl)piperazin-1-yl)pyridin-3-yl)-6-(1-methyl-1H-pyrazol-4-yl)pyrazolo[1,5-a]pyridine-3-carbonitrile], for which the IC50 in assay [1] (setting [5]) worked out at 12.1 nM; in assay [2] it was 844 nM; in assay [3] (wild type RET, 1 mM ATP) it was 10 nM.
Consider `COCC(=O)NC1CCN(c2ccc(-c3cc(-c4cnn(C)c4)cn4ncc(C#N)c34)cn2)CC1` [Example 183, N-(1-(5-(3-cyano-6-(1-methyl-1H-pyrazol-4-yl)pyrazolo[1,5-a]pyridin-4-yl)pyridin-2-yl)piperidin-4-yl)-2-methoxyacetamide], for which the IC50 is 15.8 nM in assay [1] (setting [4]); 444 nM in assay [2] (10% FBS); 11.9 nM in assay [3] (wild type RET, 1 mM ATP).
Consider `CC(C)NC(=O)N1CCN(c2ccc(-c3cc(-c4cnn(C)c4)cn4ncc(C#N)c34)cn2)CC1` [Example 126, 4-(5-(3-cyano-6-(1-methyl-1H-pyrazol-4-yl)pyrazolo[1,5-a]pyridin-4-yl)pyridin-2-yl)-N-isopropylpiperazine-1-carboxamide], for which the IC50 in assay [1] (setting [4]) was 10.8 nM; in assay [2] (10% FBS), 347 nM; in assay [3] (wild type RET, 1 mM ATP), 11.7 nM.
Take `CC(C)C(=O)N1CCN(c2ccc(-c3cc(-c4cnn(C)c4)cn4ncc(C#N)c34)cn2)CC1` [Example 66, 4-(6-(4-isobutyrylpiperazin-1-yl)pyridin-3-yl)-6-(1-methyl-1H-pyrazol-4-yl)pyrazolo[1,5-a]pyridine-3-carbonitrile]: the IC50 in assay [1] (setting [4]) was 25.4 nM; in assay [2] (10% FBS), 911 nM; in assay [3] (wild type RET, 1 mM ATP), 14.1 nM.
Take `CC(C)OC(=O)NC1CCN(c2ccc(-c3cc(-c4cnn(C)c4)cn4ncc(C#N)c34)cn2)CC1` [Example 188, Isopropyl (1-(5-(3-cyano-6-(1-methyl-1H-pyrazol-4-yl)pyrazolo[1,5-a]pyridin-4-yl)pyridin-2-yl)piperidin-4-yl)carbamate]: the IC50 in assay [1] (setting [4]) was 9.7 nM; in assay [2] (10% FBS), 614 nM; in assay [3] (wild type RET, 1 mM ATP) it was 16.8 nM.
With `Cn1cc(-c2cc(-c3ccc(N4CCN(C(=O)C(C)(C)C)CC4)nc3)c3c(C#N)cnn3c2)cn1` [Example 34, 6-(1-methyl-1H-pyrazol-4-yl)-4-(6-(4-pivaloylpiperazin-1-yl)pyridin-3-yl)pyrazolo[1,5-a]pyridine-3-carbonitrile 2,2,2-trifluoroacetate], the concentration for half-maximal inhibition (IC50) in assay [1] (setting [6]) came to 61.2 nM; in assay [2] (10% FBS) it was 3040 nM; in assay [3] (wild type RET, 1 mM ATP) it was 34.8 nM.
Take `C[C@@H](O)CC(=O)N1CCN(c2ccc(-c3cc(-c4cnn(C)c4)cn4ncc(C#N)c34)cn2)CC1` [Example 55, (R)-4-(6-(4-(3-hydroxybutanoyl)piperazin-1-yl)pyridin-3-yl)-6-(1-methyl-1H-pyrazol-4-yl)pyrazolo[1,5-a]pyridine-3-carbonitrile]: the IC50 in assay [1] (setting [4]) is 54.9 nM; in assay [2] (10% FBS), 923 nM; in assay [3] (wild type RET, 1 mM ATP), 10.4 nM.
For the molecule `CCC1(C(=O)NCCC(F)(F)F)CCN(c2ccc(-c3cc(-c4cnn(C)c4)cn4ncc(C#N)c34)cn2)CC1` [Example 255, 1-(5-(3-cyano-6-(1-methyl-1H-pyrazol-4-yl)pyrazolo[1,5-a]pyridin-4-yl)pyridin-2-yl)-4-ethyl-N-(3,3,3-trifluoropropyl)piperidine-4-carboxamide], the IC50 in assay [1] (setting [4]) is 7.3 nM; in assay [2] (10% FBS) it was 1090 nM; in assay [3] (wild type RET, 1 mM ATP), 9.1 nM.
For `C[C@@H](NC(=O)C1CCN(c2ccc(-c3cc(-c4cnn(C)c4)cn4ncc(C#N)c34)cn2)CC1)C(F)(F)F` [Example 233, (R)-1-(5-(3-cyano-6-(1-methyl-1H-pyrazol-4-yl)pyrazolo[1,5-a]pyridin-4-yl)pyridin-2-yl)-N-(1,1,1-trifluoropropan-2-yl)piperidine-4-carboxamide], in that order: 27.3 nM, 511 nM and 13.6 nM.
In the case of `Cn1cc(-c2cc(-c3ccc(N4CCC(O)(C(F)(F)F)CC4)nc3)c3c(C#N)cnn3c2)cn1` [Example 510, 4-(6-(4-hydroxy-4-(trifluoromethyl)piperidin-1-yl)pyridin-3-yl)-6-(1-methyl-1H-pyrazol-4-yl)pyrazolo[1,5-a]pyridine-3-carbonitrile 2,2,2-trifluoroacetate], the IC50 in assay [1] (setting [5]) is 9.6 nM; in assay [2], 323 nM; in assay [3], 6.7 nM.
In the case of `Cc1cccc(CN2CCN(c3ccc(-c4cc(-c5cnn(C)c5)cn5ncc(C#N)c45)cn3)CC2)n1` [Example 433, 6-(1-methyl-1H-pyrazol-4-yl)-4-(6-(4-((6-methylpyridin-2-yl)methyl)piperazin-l-yl)pyridine-3-yl)pyrazolo[1,5-a]pyridine-3-carbonitrile], the IC50 in assay [1] came out at 6 nM; in assay [2], 1080 nM; in assay [3] (wild type RET, 1 mM ATP), 9.7 nM.
For the molecule `N#Cc1cnn2cc(-c3cnn(C(F)F)c3)cc(-c3ccc(N4CCN(Cc5ccccn5)CC4)nc3)c12` [Example 586, 6-(1-(difluoromethyl)-1H-pyrazol-4-yl)-4-(6-(4-(pyridine-2-ylmethyl)piperazin-1-yl)pyridin-3-yl)pyrazolo[1,5-a]pyridine-3-carbonitrile], the half-maximal inhibitory concentration (IC50) in assay [1] (setting [5]) is 15.6 nM; in assay [2], not below 5000 nM; in assay [3] (wild type RET, 1 mM ATP) it was 5.2 nM.
Turning to `Cn1cc(-c2cc(-c3ccc(N4CCN(S(=O)(=O)NC(C)(C)C)CC4)nc3)c3c(C#N)cnn3c2)cn1` [Example 137, N-(tert-butyl)-4-(5-(3-cyano-6-(1-methyl-1H-pyrazol-4-yl)pyrazolo[1,5-a]pyridin-4-yl)pyridin-2-yl)piperazine-1-sulfonamide], the IC50 in assay [1] (setting [4]) came to 5.2 nM; in assay [2] (10% FBS), 71.3 nM; in assay [3] (wild type RET, 1 mM ATP), 8.3 nM.
